The source of these data is paper PMC10510102, “Efficient Ligand Discovery Using Sulfur(VI) Fluoride Reactive Fragments” (ACS Chemical Biology, 2023).

The experiment addresses BCL6 BTB/POZ domain (Homo sapiens, UniProt P41182, C67R/C84N/C8Q). Put plainly: Cocrystal structure with BCL6 BTB/POZ dimer. Conditions: via a sulfonate ester. Details: hBCL6-Flag 3Cmut (5-129) produced in house; FLAG (C); made in house. The text has this: Crystal structures of SFs 2f and 2s within BCL6 were generated to further investigate the binding mode of the fragments; this used a previously published protocol.[42] […] The twisted conformation of 2s could also represent a premodified state of the protein–SF complex, which may have become disrupted for 2f upon covalent modification with Tyr57 to afford the extended conformation observed.
The fluorescence intensity data from the individual replicates of each sample type were normalized and identically truncated within GraphPad Prism 5.0.4.11 These values were subsequently fitted to equation (4) corresponding to a Boltzmann sigmoid in order to obtain the melting temperature (“V50”; T m) of the protein:
Y=BOTTOM+((TOP+BOTTOM)/(1+exp((V50–X)/SLOPE))) (4)
The three obtained T m values were averaged to give a final T m value in each case. The normalized fluorescence data for the three replicates of each sample were averaged to yield a single dataset for each case, which were then plotted in GraphPad Prism 5.0.4 to give the plots shown in the manuscript.11
Table S9. Thermal melting temperatures of unmodified and covalently modified BCL6 BTB/POZ domain as determined by differential scanning fluorimetry measurements.
The arithmetic mean and standard deviation from three replicates are shown.
Hit Chemotype Protein Species Tm / °C ΔT m / °C […]

With `CN(C)C(=O)Nc1cccc(CNC(=O)Cc2ccc(S(=O)(=O)F)cc2)c1` [2f], the “residue covalently conjugated in cocrystal structure” value is “Tyr57”.
